# Reference: patent US5639887A, “MDR reversal agents” (priority 1995, dated 1997)
# Assays:
# [1] = system: human epidermoid carcinoma KB/8.5; test: In vivo evaluation of MDR-1 reversal agents against human epidermoid carcinoma KB/8.5 implanted SC in athymic nude mice; parameters: species or system human (tumor in athymic nude mice)
# Procedure: The multiple drug resistant human epidermoid carcinoma KB/8.5 is propagated in medium containing colchicine (10 nanograms/ml) to maintain drug resistance. Colchicine is removed from the medium, for two cell passages, prior to subcutaneous (SC) implant of 8×10^6 KB/8.5 tumor cells into athymic "nude" mice (Harlan Sprague Dawley). […] Individual mouse tumor mass and mean tumor mass for each treatment group is determined on Day +14 and Day +21 of the test period. For each treatment group, the Relative Tumor Growth, RTG, is calculated as follows: [formula]
# Statistical analysis of Log Relative Tumor Growth is carried out using the Student t-test. Transformation of the data from absolute mean tumor mass (mgs tumor mass) to Log Relative Tumor Growth prior to statistical analysis has two beneficial effects:
# 1) it corrects the data for differences in mean tumor mass of the different treatment groups at the start of the test period (Day 0); and
# 2) the Log transformation of the data more adequately reflects the exponential growth pattern of the SC tumors and makes the use of the Student t-test more appropriate.
# [2] = system: vincristine resistant murine leukemia P388/VCR; test: In vivo evaluation of MDR-1 reversal agents against vincristine resistant murine leukemia P388/VCR implanted IP in CDF1 mice; conditions: for % ILS: vs vincristine alone
# Procedure: Tumor cell ascites are harvested 5-7 days later. For drug testing, groups of 10-15 CDF1 mice (DBA/2×Balb/cF1 hybrids; Charles River Laboratories, Inc) are injected IP with 0.5 ml of diluted ascitic fluid containing 1×10^6 viable P388/VCR tumor cells. […] Drugs are administered once daily, by the IP, intravenous (IV) or oral route, starting one day after tumor implantation and using a variety of treatment schedules. Mice are weighed periodically, survival is recorded for 30 days post tumor implantation, and Mean survival times are calculated for all groups of mice. Statistical analysis of Mean survival times is carried out using the Student t-test.
# [3] = vincristine 0.2 + compound 75 mg/kg, days 1-7, IP
# [4] = vincristine 0.2 + compound 100 mg/kg, days 1-7, ORAL
# [5] = vincristine 0.2 + compound 200 mg/kg, days 1-7, ORAL
# [6] = vincristine 0.4 + compound 25.0 mg/kg, days 1-3, IP
# [7] = vincristine 0.4 + compound 50.0 mg/kg, days 1-3, IP
# [8] = vincristine 0.2 + compound 25 mg/kg, days 1-7, IP
# [9] = vincristine 0.2 + compound 50 mg/kg, days 1-7, IP
# [10] = doxorubicin 8 mg/kg IV + compound 75 mg/kg/dose SC at -2 h and +2 h
# [11] = doxorubicin 8 mg/kg IV + compound 200 mg/kg/dose SC at -2 h and +2 h
# [12] = vincristine 0.2 + compound 6.3 mg/kg, days 1-7, IP
# [13] = doxorubicin 8 mg/kg IV + compound 150 mg/kg/dose SC at -2 h and +2 h
# [14] = vincristine 0.2 + compound 25 mg/kg, days 1-5, IP
# [15] = vincristine 0.2 + compound 50 mg/kg, days 1-5, IP
# [16] = vincristine 0.4 + compound 25 mg/kg, days 1-3,6,7, IV
# [17] = vincristine 0.4 + compound 50 mg/kg, days 1-3,6,7, IV
# [18] = vincristine 0.6 + compound 6.3 mg/kg, days 1,5,9, IP
# [19] = vincristine 0.6 + compound 25 mg/kg, days 1,2, IV
# [20] = vincristine 0.6 + compound 25 mg/kg, days 1,5,9, IP
# [21] = vincristine 0.6 + compound 50 mg/kg, days 1,2, IV
# [22] = vincristine 0.8 + compound 25 mg/kg, days 1,2, IV
smiles,measurement,setting,value
"COc1ccc(C(C#N)(CCCN2CCc3cc(OC)c(OC)cc3C2)Sc2ccc(C)cc2)cc1OC (stereo not drawn) [Example 3, α-(3,4-Dimethoxyphenyl)-3,4-dihydro-6,7-dimethoxy-α-[(4-methylphenyl)thio]-2(1H)-isoquinolinepentanenitrile]",Relative Tumor Growth Day 21,[1]; doxorubicin 8 mg/kg IV + compound 50 mg/kg/dose SC at -2 h and +2 h,8.38
same,Relative Tumor Growth Day 21,[1]; doxorubicin 8 mg/kg IV + compound 100 mg/kg/dose SC at -2 h and +2 h,8.87
same,MST,[2]; [3],16.7 days
same,MST,[2]; [4],15.8 days
same,MST,[2]; [5],16.4 days
same,MST,[2]; [6],15.6 days
same,MST,[2]; [7],16.3 days
same,% ILS,[2]; [3],+21%
same,% ILS,[2]; [4],+15%
same,% ILS,[2]; [5],+20%
same,% ILS,[2]; [6],+10%
same,% ILS,[2]; [7],+15%
"COC(=O)C(CCCN1CCc2cc(OC)c(OC)cc2C1)(Sc1ccc(C)cc1)c1ccc(OC)c(OC)c1 (stereo not drawn) [Example 12, α-(3,4-Dimethoxyphenyl)-3,4-dihydro-6,7-dimethoxy-α-[(4-methylphenyl)thio]-2(1H)-isoquinolinepentanoic acid methyl ester]",MST,[2]; [8],16.5 days
same,MST,[2]; [9],16.7 days
same,% ILS,[2]; [8],+9%
same,% ILS,[2]; [9],+11%
"COc1ccc(C(C#N)(CCCCCCCCCCCN2CCc3cc(OC)c(OC)cc3C2)Sc2ccc(C)cc2)cc1OC (stereo not drawn) [Example 14, α-(3,4-Dimethoxyphenyl)-3,4-dihydro-6,7-dimethoxy α-[(4-methylphenyl)thio]-2(1H)-isoquinoline tridecanenitrile]",Relative Tumor Growth Day 21,[1]; [10],5.86
same,Relative Tumor Growth Day 21,[1]; [11],7.84
same,MST,[2]; [12],14.3 days
same,% ILS,[2]; [12],+14%
"COc1ccc(C(C#N)(CCCCCN2CCc3ccccc3C2)Sc2ccc(C)cc2)cc1OC (stereo not drawn) [Example 16, α-(3,4-Dimethoxyphenyl)-3,4-dihydro-α-[(4-methylphenyl)thio]-2(1H)-isoquinoline-2-heptanenitrile]",MST,[2]; [8],16.8 days
same,% ILS,[2]; [8],+11%
"COc1ccc(C(C#N)(CCCCCN2CCc3cc(OC)c(OC)cc3C2)Sc2ccc(C)cc2)cc1OC (stereo not drawn) [Example 17, α-(3,4-Dimethoxyphenyl)-3,4-dihydro-6,7-dimethoxy-α-[(4-methylphenyl)thio]-2(1H)-isoquinolineheptanenitrile]",Relative Tumor Growth Day 21,[1]; doxorubicin 8 mg/kg IV + compound 25 mg/kg/dose SC at -2 h and +2 h,9.55
same,Relative Tumor Growth Day 21,[1]; [13],3.35
same,Relative Tumor Growth Day 21,[1]; [11],5.30
same,Relative Tumor Growth Day 21,[1]; doxorubicin 8 mg/kg IV + compound […] SC at -2 h and +2 h,8.58
same,MST,[2]; [14],16.8 days
same,MST,[2]; [15],16.1 days
same,MST,[2]; [16],13.3 days
same,MST,[2]; [17],13.4 days
same,MST,[2]; [18],12.9 days
same,MST,[2]; [19],10.1 days
same,MST,[2]; [20],15.8 days
same,MST,[2]; [21],11.1 days
same,MST,[2]; [22],11.1 days
same,% ILS,[2]; [14],+22%
same,% ILS,[2]; [15],+17%
same,% ILS,[2]; [16],+17%
same,% ILS,[2]; [17],+18%
same,% ILS,[2]; [18],+12%
same,% ILS,[2]; [19],+5%
same,% ILS,[2]; [20],+38%
same,% ILS,[2]; [21],+16%
same,% ILS,[2]; [22],+13%
"COc1ccc(C(C#N)(CCCCCCCCN2CCc3cc(OC)c(OC)cc3C2)Sc2ccc(C)cc2)cc1OC (stereo not drawn) [Example 20, α-(3,4-Dimethoxyphenyl]-3,4-dihydro-6,7-dimethoxy-α-[(4-methylphenyl)thio]-2(1H)-isoquinolinedecanenitrile]",MST,[2]; [12],13.5 days
same,% ILS,[2]; [12],+8%
COc1ccc(C(C#N)(CCCCCN2CCc3cc4c(cc3C2)OCO4)Sc2ccc(C)cc2)cc1OC (centres unmarked) [Example 21],MST,[2]; [8],14.5 days
same,% ILS,[2]; [8],+16%
COc1ccc2c(c1)CCN(CCCCCC(C#N)(Sc1ccc(C)cc1)c1ccc(OC)c(OC)c1)C2 (centres unmarked) [Example 22],MST,[2]; [12],15.2 days
same,% ILS,[2]; [12],+20%
"COc1ccc(C(C#N)(CCCCCN2Cc3cc(OC)c(OC)cc3C2)Sc2ccc(C)cc2)cc1OC (stereo not drawn) [Example 26, α-(3,4-Dimethoxyphenyl)-1,3-dihydro-5,6-dimethoxy-α-[(4-methylphenyl)thio]-2H-isoindole-2-heptanenitrile]",Relative Tumor Growth Day 21,[1]; [10],3.49
same,Relative Tumor Growth Day 14,[1]; [13],Toxic
same,Relative Tumor Growth Day 21,[1]; [13],Toxic
same,Relative Tumor Growth Day 14,[1]; [11],Toxic
same,Relative Tumor Growth Day 21,[1]; [11],Toxic
same,MST,[2]; [12],13.8 days
same,MST,[2]; [8],15.8 days
same,% ILS,[2]; [12],+23%
same,% ILS,[2]; [8],+41%
"COc1ccc(C(C#N)(CCCCCN2CCc3cc(OC)c(OCCn4ccnc4)cc3C2)Sc2ccc(C)cc2)cc1OC (stereo not drawn) [Example 33, α-(3,4-Dimethoxyphenyl)-3,4-dihydro-7-[2-(1H-imidazol-1-yl)ethoxy]-6-methoxy-α-[(4-methylphenyl)thio]-2(1H)-isoquinolineheptanenitrile]",MST,[2]; [8],15.6 days
same,MST,[2]; [9],16.6 days
same,% ILS,[2]; [8],+39%
same,% ILS,[2]; [9],+48%
"COc1ccc(C(C#N)(CCCCCCN2CCc3cc(OC)c(OC)cc3C2)Sc2ccc(C)cc2)cc1OC (stereo not drawn) [Example 37, α-(3.4-Dimethoxyphenyl)-3,4-dihydro-6,7-dimethoxy-α-[(4-methylphenyl)thio]-2(1H)-isoqutnolineoctanenitrile]",MST,[2]; [8],14.7 days
same,% ILS,[2]; [8],+17%
"COc1cc2c(cc1OC)CN(CCCCCCC(Sc1ccccc1)c1ccccc1)CC2 (centres unmarked) [Example 112, 1,2,3,4-Tetrahydro-6,7-dimethoxy-2-[7-phenyl-7-(phenylthio]heptyl]isoquinoline]",MST,[2]; [8],16.3 days
same,MST,[2]; [9],14.2 days
same,% ILS,[2]; [8],+45%
same,% ILS,[2]; [9],+26%
"CC[C@]1(O)C[C@H]2CN(CCc3c([nH]c4ccccc34)[C@@](C(=O)OC)(c3cc4c(cc3OC)N(C=O)[C@H]3[C@@](O)(C(=O)OC)[C@H](OC(C)=O)[C@]5(CC)C=CCN6CC[C@]43[C@@H]65)C2)C1 [Vincristine, reference compound]",MST,"[2]; vincristine alone 0.6 mg/kg, days 1,2, IV",9.6 days
same,MST,"[2]; vincristine alone 0.8 mg/kg, days 1,2, IV",9.8 days
